The record followed here is patent US11518758B2, “Heteroarylaminopyrimidine amide autophagy inhibitors and methods of use thereof” (Deciphera Pharmaceuticals, LLC, priority 2019, dated 2022).

One assay addresses T1, ULK1 kinase (Homo sapiens, UniProt O75385).
T1 construct: purchased Eurofins 14-959
T1 sequence (O75385 with tags, fused parts or gaps): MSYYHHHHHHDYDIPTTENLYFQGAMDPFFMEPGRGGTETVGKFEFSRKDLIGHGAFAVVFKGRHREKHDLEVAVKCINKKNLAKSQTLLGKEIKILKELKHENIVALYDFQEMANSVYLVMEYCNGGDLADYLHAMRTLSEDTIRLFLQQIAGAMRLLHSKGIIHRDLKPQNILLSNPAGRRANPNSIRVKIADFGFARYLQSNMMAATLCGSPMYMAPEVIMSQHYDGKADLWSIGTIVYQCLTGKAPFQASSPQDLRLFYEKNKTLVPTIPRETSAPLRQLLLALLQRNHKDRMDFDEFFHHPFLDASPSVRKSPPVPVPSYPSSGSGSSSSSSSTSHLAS
Description: Biochemical assay for ULK1.2 (coupled pyruvate kinase/lactate dehydrogenase assay). To be noted: 19 nM ULK1 (Eurofins), myelin basic protein, 1 mM ATP. The method, boiled down: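 NADH-coupled PK/LDH read-out at 340 nm, run with 19 nM ULK1, 0.25 mg/mL myelin basic protein and 1 mM ATP. Buffer was 100 mM Tris pH 7.5 with 15 mM MgCl2 and 1% DMSO final. Monitoring was continuous for 6 hours at 30° C; rates from the 2-3 h window were converted to percent inhibition and fitted to a four-parameter curve for IC50.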

The target in a further assay is T2, ULK2 kinase (Homo sapiens, UniProt Q8IYT8).
T2 construct: purchased Eurofins 14-772
Description: Biochemical assay for ULK2 (coupled pyruvate kinase/lactate dehydrogenase assay). The settings on record: 9.7 nM ULK2 (Eurofins), myelin basic protein, 1 mM ATP; read-out: ULK2.2. The method, boiled down: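 Continuous PK/LDH-coupled NADH-oxidation assay with 9.7 nM ULK2, 0.25 mg/mL myelin basic protein and 1 mM ATP in Tris pH 7.5, MgCl2, DTT buffer, 1% DMSO. A340 followed 6 h at 30° C; rates from 2-3 h window converted to % inhibition, IC50 from four-parameter fit.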

Assay [1] concerns phospho-Serine 318 ATG13 (pATG13) in HCT-116 cells. The experiment in a line: pATG13 levels of mutant KRas HCT-116 cells after treatment with ULK inhibitors in combination with trametinib (ELISA). The assay is classed as cell-based, human. The method, then:
Example 179. pATG13 Levels of Mutant KRas HCT-116 Cells after Treatment with ULK Inhibitors in Combination with Trametinib
HCT-116 human colon cancer cells (10000 cells/well) were added to a 384-well tissue-culture treated plate in 50 μL of pre-warmed DMEM medium supplemented with 10% characterized fetal bovine serum (Invitrogen, Carlsbad, Calif.), 100 units/mL penicillin G, and 100 μg/mL streptomycin and allowed to grow overnight at 37° C., 5% CO2, and 95% humidity. The following day, 10 μL of media containing trametinib or DMSO as a control was added to wells. The final concentration of trametinib in wells was 250 nM. A dose response of a test compound (0.6 μL per well) was added. DMSO (0.6 μL) was added to control wells. The plate was briefly shaken to mix wells and then incubated at 37° C. overnight. The next day, the media was aspirated and cells were washed with Dulbecco's Phosphate Buffered Saline (Gibco). Cells were lysed using MPER lysis buffer (Pierce, Rockford, Ill.) containing Halt Phosphatase and Protease Inhibitors (Pierce, Rockford, Ill.) and Phosphatase inhibitor cocktail 2 (Sigma, St. Louis, Mo.) at 4° C. for 10 minutes with shaking.
Cellular levels of phospho-Serine 318 ATG13 (pATG13) were measured via an ELISA method. Total ATG13 Antibody (Cell Signaling Cat #13273) was used to coat the wells. The plate was incubated at 4° C. overnight and washed with ELISA wash buffer (Biolegend Cat #421601). The wells were then blocked with assay diluent (Biolegend Cat #421203) for 1 hour at room temperature. Plate wells were washed with ELISA wash buffer. Cell lysate was added to wells and incubated at room temperature for 2 hours. Plate wells were washed with ELISA wash buffer. Biotinylated pS318-ATG13 antibody (Rockland Immunochemicals Cat #600-401-C49) was diluted in assay diluent and added to each well and incubated at room temperature for 1 hour. Plate wells were washed with ELISA wash buffer. Streptavidin linked to horseradish peroxidase (Thermo Fisher Cat #21140) was diluted in assay diluent and added to each well and incubated at room temperature for 1 hour. Plate wells were washed with ELISA wash buffer. High sensitivity TMB substrate (Biolegend Cat #421101) was added to each well and incubated at room temperature for 20 minutes. The reaction was stopped with 2N Sulfuric Acid. The plate was analyzed at on a plate reader measuring absorbance at 450 nm and 540 nm (background). Signal was calculated by first subtracting the background absorbance at 540 nm from the absorbance at 450 nm for each well. Next, the background corrected absorbance at 450 nm from blank wells was subtracted from test wells. Data was compared to control wells to determine % ATG13 phosphorylation. GraphPad Prism was used to calculate IC50 values.
In general terms: In an ELISA, binding on a coated surface is turned into a signal by an enzyme label.

T2 sequence (Q8IYT8 with tags, fused parts or gaps): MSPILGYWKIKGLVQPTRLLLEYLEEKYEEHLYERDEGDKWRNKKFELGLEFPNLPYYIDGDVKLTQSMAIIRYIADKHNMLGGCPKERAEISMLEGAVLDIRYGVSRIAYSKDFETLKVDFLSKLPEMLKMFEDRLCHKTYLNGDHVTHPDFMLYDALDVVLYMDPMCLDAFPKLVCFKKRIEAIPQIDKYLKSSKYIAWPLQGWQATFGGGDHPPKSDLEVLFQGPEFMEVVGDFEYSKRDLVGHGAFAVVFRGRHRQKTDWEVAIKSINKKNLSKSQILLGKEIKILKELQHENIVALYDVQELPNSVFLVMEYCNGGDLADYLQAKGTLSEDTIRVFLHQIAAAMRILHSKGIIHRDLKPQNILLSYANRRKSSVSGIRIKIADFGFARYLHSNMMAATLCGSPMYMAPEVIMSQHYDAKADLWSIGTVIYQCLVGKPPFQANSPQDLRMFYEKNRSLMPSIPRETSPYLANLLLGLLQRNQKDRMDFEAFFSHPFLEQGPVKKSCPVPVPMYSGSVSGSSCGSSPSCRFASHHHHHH

Consider `CCN1CC[C@H](n2cc(Nc3ncc(Br)c(NCCCN4CCCCC4=O)n3)c(C)n2)C1` [Example 64], for which the IC50 is 25 to 100 nM against ULK1 kinase and more than 500 nM on ULK2 kinase.
On to `Cc1nn([C@H]2CCN(C)C2)cc1Nc1ncc(Br)c(NCCCN2CCCCC2=O)n1` [Example 61], for which the IC50 at ULK1 kinase fell in the range of 25 to 100 nM; at ULK2 kinase, 100 to 500 nM; in assay [1], 10 to 100 nM.
On to `Cc1nn(C2CCN(C)CC2)cc1Nc1ncc(Cl)c(NCCCN2CCCOCC2=O)n1` [Example 105], for which the IC50 on ULK1 kinase is 25 to 100 nM; on ULK2 kinase, more than 500 nM; in assay [1], 100 to 300 nM.
The corresponding values for `CCN1CCC(n2cc(Nc3ncc(C(F)(F)F)c(NCCCN4CCOCCC4=O)n3)c(C)n2)CC1` [Example 130] are 25 to 100 nM, 100 to 500 nM and 10 to 100 nM.
Take `CN(C)CCn1cc(Nc2ncc(C(F)(F)F)c(NCCCN3CCCCC3=O)n2)cn1` [Example 32]: the IC50 against ULK1 kinase lay in the range of 25 to 100 nM; on ULK2 kinase, 100 to 500 nM; in assay [1] it was 10 to 100 nM.
Consider `Cc1nn(C2CCN(C)CC2)cc1Nc1ncc(C(F)(F)F)c(NCCCN2CCCCCC2=O)n1` [Example 79], for which the IC50 against ULK1 kinase lay in the range of 1 to 25 nM; on ULK2 kinase, 1 to 25 nM; in assay [1], 10 to 100 nM.
As to `Cc1nn(C2CCN(C(C)C)CC2)cc1Nc1ncc(C(F)(F)F)c(NCCCN2CCCOCC2=O)n1` [Example 108], the IC50 at ULK1 kinase was 25 to 100 nM; on ULK2 kinase, more than 500 nM; in assay [1], 100 to 300 nM.
`Cc1nn(CCCN2CCOCC2)cc1Nc1ncc(C(F)(F)F)c(NCCCN2CCCCCC2=O)n1` [Example 100]: the IC50 at ULK1 kinase fell in the range of 25 to 100 nM; on ULK2 kinase it was 100 to 500 nM; in assay [1], 100 to 300 nM.
With `Cc1nn(CCN(C)C)cc1Nc1ncc(C(F)(F)F)c(NCCCN2CCCCC2=O)n1` [Example 21], the IC50 on ULK1 kinase fell in the range of 25 to 100 nM; at ULK2 kinase, 100 to 500 nM; in assay [1], 100 to 300 nM.
The corresponding values for `Cc1nn(C2CCN(C(C)C)CC2)cc1Nc1ncc(C(F)(F)F)c(NCCCN2CCCOC2=O)n1` [Example 68] are 25 to 100 nM, 100 to 500 nM and 10 to 100 nM.
`Cc1nn(C2CCN(C)CC2)cc1Nc1ncc(C(F)(F)F)c(NCCCN2CCCOCC2=O)n1` [Example 102]: the IC50 against ULK1 kinase is 1 to 25 nM; at ULK2 kinase it was 25 to 100 nM; in assay [1], 10 to 100 nM.
The corresponding values for `Cc1nn(C2CCN(C)CC2)cc1Nc1ncc(C(F)(F)F)c(NCCCN2CCOCCC2=O)n1` [Example 127] are 1 to 25 nM, 100 to 500 nM and 100 to 300 nM.
The corresponding values for `CC(C)N1CCC(n2cc(Nc3ncc(C(F)(F)F)c(NCCCN4CCCCC4=O)n3)cn2)CC1` [Example 6] are 1 to 25 nM, 25 to 100 nM and 100 to 300 nM.
In the same order, the values of `CCN1CCC(n2cc(Nc3ncc(C(F)(F)F)c(NCCCN4CCCOCC4=O)n3)c(C)n2)CC1` [Example 107] are 25 to 100 nM, 100 to 500 nM and 10 to 100 nM.
As to `CCc1nn(C2CCN(C)CC2)cc1Nc1ncc(Br)c(NCCCN2CCCCC2=O)n1` [Example 53], the results for the IC50 (at ULK1 kinase; on ULK2 kinase; in assay [1]) were 25 to 100 nM, 100 to 500 nM and 10 to 100 nM, respectively.
The corresponding values for `Cc1nn([C@@H]2CCN(C)C2)cc1Nc1ncc(C(F)(F)F)c(NCCCN2CCCOCC2=O)n1` [Example 106] are 25 to 100 nM, 100 to 500 nM and 10 to 100 nM.
Consider `Cc1nn([C@@H]2CCN(C)C2)cc1Nc1ncc(C(F)(F)F)c(NCCCN2CCCCC2=O)n1` [Example 18], for which the IC50 at ULK1 kinase was 1 to 25 nM; on ULK2 kinase it was 25 to 100 nM.
With `Cc1nn(C2CCN(C(C)C)CC2)cc1Nc1ncc(C(F)(F)F)c(NCCCN2CCCCC2=O)n1` [Example 15], the IC50 on ULK1 kinase lay within 25 to 100 nM; on ULK2 kinase, 100 to 500 nM; in assay [1] it was 10 to 100 nM.
In the same order, the values of `Cc1nn(C2CCN(C(C)C)CC2)cc1Nc1ncc(C(F)(F)F)c(NCCCN2CCOCCC2=O)n1` [Example 131] are 25 to 100 nM, more than 500 nM and 100 to 300 nM.
As to `Cc1nn(C2CCN(C)CC2)cc1Nc1ncc(C(F)(F)F)c(NCCCN2CCCCC2=O)n1` [Example 8], the IC50 is 1 to 25 nM against ULK1 kinase and 25 to 100 nM at ULK2 kinase.
